According to patent publication US6914045B2, “Glycopeptide antibiotics” (Wyeth Holdings Corporation, priority 2001, dated 2005):
In brackets after ≈: the same amount, converted by molar mass.

Tests used:
Assay in all cases: in vitro antibacterial evaluation, MIC by broth dilution
Type in all cases: cell-based
[1] = test system: Enterococcus sp.; conditions: broth dilution, 18 hours at 35° C.; for MIC Enterococcus faecalis (ATCC 29212): strain ATCC 29212; for MIC Enterococcus faecium (GC 2243): strain GC 2243; for MIC Enterococcus faecalis (GC 4552): strain GC 4552; for MIC Enterococcus faecalis (GC 4553): strain GC 4553; for MIC Enterococcus faecalis (GC 4554): strain GC 4554; for MIC Enterococcus faecium (GC 4556): strain GC 4556; for MIC Enterococcus faecium (GC 4557): strain GC 4557; for MIC Enterococcus avium (GC 4558): strain GC 4558; for MIC Enterococcus faecalis (GC 6189): strain GC 6189
Method in brief: (§1)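 MIC, the lowest antibiotic concentration preventing growth, was read across 64-0.06 μg/mL with 5×10^5 CFU/mL inoculum. Method followed NCCLS M7-A2 broth dilution using Mueller-Hinton II; Gram-positive strains covered recent methicillin-, penicillin- and/or vancomycin-resistant clinical isolates.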

[2] = test system: Escherichia coli
Method in brief: as §1

[3] = test system: Staphylococcus sp.; conditions: broth dilution, 18 hours at 35° C.; for MIC Staphylococcus aureus (GC 1131): strain GC 1131
Method in brief: as §1

[4] = test system: Streptococcus sp.; conditions: broth dilution, 18 hours at 35° C.
Method in brief: as §1

`CC(=O)n1cc(C2OCC3OC(OC4C(CO)OC(Oc5ccc(CC6NC(=O)C(C(C)c7ccccc7)NC(=O)CNC(=O)C(CO)NC(=O)C(C(O)C7CNC(=N)N7C7OC(CO)C(O)C(O)C7O)NC(=O)C(C(O)C7CNC(=N)N7)NC6=O)cc5)C(O)C4O)C(O)C(O)C3O2)c2ccccc21` (stereo not drawn) [Example 161] was tested, and the “MIC Enterococcus faecalis (GC 2242)” value ([1]; Enterococcus faecalis (GC 2242)) was 16 µg/mL (≈ 10.9 µM), the “MIC Enterococcus faecalis (GC 2691)” value ([1]; Enterococcus faecalis (GC 2691)) was 16 µg/mL (≈ 10.9 µM) and the “MIC Enterococcus faecalis (GC 3059)” value ([1]; Enterococcus faecalis (GC 3059)) was 16 µg/mL (≈ 10.9 µM). For the same compound, the “MIC Enterococcus faecalis (ATCC 29212)” value ([1]; inoculum 5×10^5 CFU/mL) was 16 µg/mL (≈ 10.9 µM), the “MIC Enterococcus faecium (GC 2243)” value ([1]; inoculum 5×10^5 CFU/mL) was 16 µg/mL (≈ 10.9 µM) and the “MIC Enterococcus faecalis (GC 4552)” value ([1]; inoculum 5×10^5 CFU/mL) was 16 µg/mL (≈ 10.9 µM). For the same compound, the “MIC Enterococcus faecalis (GC 4553)” value ([1]; inoculum 5×10^5 CFU/mL) was 16 µg/mL (≈ 10.9 µM), the “MIC Enterococcus faecalis (GC 4554)” value ([1]; inoculum 5×10^5 CFU/mL) was 16 µg/mL (≈ 10.9 µM) and the “MIC Enterococcus faecium (GC 4556)” value ([1]; inoculum 5×10^5 CFU/mL) was 16 µg/mL (≈ 10.9 µM). The “MIC Enterococcus faecium (GC 4557)” value ([1]; inoculum 5×10^5 CFU/mL) was 8 µg/mL (≈ 5.46 µM), the “MIC Enterococcus avium (GC 4558)” value ([1]; inoculum 5×10^5 CFU/mL) was 16 µg/mL (≈ 10.9 µM) and the “MIC Enterococcus faecalis (GC 6189)” value ([1]; inoculum 5×10^5 CFU/mL) was 16 µg/mL (≈ 10.9 µM). The “MIC Enterococcus faecalis (ATCC 29212)” value [1] was 16 µg/mL (≈ 10.9 µM), the “MIC Enterococcus faecalis (GC 2242)” value ([1]; strain GC 2242) was 16 µg/mL (≈ 10.9 µM) and the “MIC Enterococcus faecium (GC 2243)” value [1] was 16 µg/mL (≈ 10.9 µM). For the same compound, the “MIC Enterococcus faecalis (GC 2691)” value ([1]; strain GC 2691) was 16 µg/mL (≈ 10.9 µM), the “MIC Enterococcus faecalis (GC 3059)” value ([1]; strain GC 3059) was 16 µg/mL (≈ 10.9 µM) and the “MIC Enterococcus faecalis (GC 4552)” value [1] was 16 µg/mL (≈ 10.9 µM). The “MIC Enterococcus faecalis (GC 4553)” value [1] was 16 µg/mL (≈ 10.9 µM), the “MIC Enterococcus faecalis (GC 4554)” value [1] was 16 µg/mL (≈ 10.9 µM) and the “MIC Enterococcus faecium (GC 4556)” value [1] was 16 µg/mL (≈ 10.9 µM). The “MIC Enterococcus faecium (GC 4557)” value [1] was 8 µg/mL (≈ 5.46 µM), the “MIC Enterococcus avium (GC 4558)” value [1] was 16 µg/mL (≈ 10.9 µM) and the “MIC Enterococcus faecalis (GC 6189)” value [1] was 16 µg/mL (≈ 10.9 µM). For the same compound, the “MIC Escherichia coli (ATCC 25922)” value ([2]; strain ATCC 25922, 18 hours at 35° C.) was >64 µg/mL, the “MIC Escherichia coli (GC 4559)” value ([2]; strain GC 4559, 18 hours at 35° C.) was >64 µg/mL and the “MIC Escherichia coli (GC 4560)” value ([2]; strain GC 4560, 18 hours at 35° C.) was 2 µg/mL (≈ 1.37 µM). For the same compound, the “MIC Staphylococcus aureus (GC 1131)” value ([3]; inoculum 5×10^5 CFU/mL) was 8 µg/mL (≈ 5.46 µM), the “MIC Staphylococcus aureus (ATCC 29213)” value ([3]; strain ATCC 29213) was 4 µg/mL (≈ 2.73 µM) and the “MIC Staphylococcus aureus (GC 1131)” value [3] was 8 µg/mL (≈ 5.46 µM). For the same compound, the “MIC Staphylococcus aureus (GC 3051)” value ([3]; strain GC 3051) was 8 µg/mL (≈ 5.46 µM), the “MIC Staphylococcus aureus (GC 3053)” value ([3]; strain GC 3053) was 8 µg/mL (≈ 5.46 µM) and the “MIC Staphylococcus aureus (GC 4541)” value ([3]; strain GC 4541) was 4 µg/mL (≈ 2.73 µM). For the same compound, the “MIC Staphylococcus aureus (GC 4542)” value ([3]; strain GC 4542) was 4 µg/mL (≈ 2.73 µM), the “MIC Staphylococcus aureus-SMITH (GC 4543)” value ([3]; strain GC 4543) was 4 µg/mL (≈ 2.73 µM) and the “MIC Staphylococcus aureus (GC 4544)” value ([3]; strain GC 4544) was 8 µg/mL (≈ 5.46 µM). For the same compound, the “MIC Staphylococcus aureus (GC 4545)” value ([3]; strain GC 4545) was 4 µg/mL (≈ 2.73 µM), the “MIC Staphylococcus haemolyticus (GC 4546)” value ([3]; strain GC 4546) was 4 µg/mL (≈ 2.73 µM) and the “MIC Coagulase Negative Staphylococcus (GC 4547)” value ([3]; strain GC 4547) was 4 µg/mL (≈ 2.73 µM). The “MIC Coagulase Negative Staphylococcus (GC 4548)” value ([3]; strain GC 4548) was 2 µg/mL (≈ 1.37 µM), the “MIC Coagulase Negative Staphylococcus (GC 4549)” value ([3]; strain GC 4549) was 2 µg/mL (≈ 1.37 µM) and the “MIC Coagulase Negative Staphylococcus (GC 4551)” value ([3]; strain GC 4551) was 8 µg/mL (≈ 5.46 µM). For the same compound, the “MIC Coagulase Negative Staphylococcus (GC 6257)” value ([3]; strain GC 6257) was 2 µg/mL (≈ 1.37 µM), the “MIC Staphylococcus aureus-SMITH (GC 4543)” value ([3]; strain SMITH GC 4543) was 4 µg/mL (≈ 2.73 µM) and the “MIC Streptococcus agalactiae (GC 4564)” value ([4]; Streptococcus agalactiae (GC 4564)) was 1 µg/mL (≈ 0.683 µM). For the same compound, the “MIC Streptococcus pneumoniae (ATCC 6301)” value ([4]; Streptococcus pneumoniae (ATCC 6301)) was 0.5 µg/mL (≈ 0.341 µM), the “MIC Streptococcus pneumoniae (GC 1894)” value ([4]; Streptococcus pneumoniae (GC 1894)) was 0.12 µg/mL (≈ 0.0819 µM) and the “MIC Streptococcus pneumoniae (GC 4565)” value ([4]; Streptococcus pneumoniae (GC 4565)) was 0.5 µg/mL (≈ 0.341 µM). For the same compound, the “MIC Streptococcus pyogenes (GC 4563)” value ([4]; Streptococcus pyogenes (GC 4563)) was 1 µg/mL (≈ 0.683 µM), the “MIC Streptococcus pneumoniae (ATCC 6301)” value ([4]; strain ATCC 6301) was 0.5 µg/mL (≈ 0.341 µM) and the “MIC Streptococcus pneumoniae (GC 1894)” value ([4]; strain GC 1894) was 0.12 µg/mL (≈ 0.0819 µM). For the same compound, the “MIC Streptococcus pyogenes (GC 4563)” value ([4]; strain GC 4563) was 1 µg/mL (≈ 0.683 µM), the “MIC Streptococcus agalactiae (GC 4564)” value ([4]; strain GC 4564) was 1 µg/mL (≈ 0.683 µM) and the “MIC Streptococcus pneumoniae (GC 4565)” value ([4]; strain GC 4565) was 0.5 µg/mL (≈ 0.341 µM).
